Key:
CD4 T cells = test: Cytokine production of isolated CD4 T cells activated with anti CD3; type: cell-based, human
Method: (§1) CD4+ and CD8+ cells were isolated by positive selection. Briefly, 10×10^7 PBMC cells in 90 μl were incubated with 10 μl of either anti-CD4+ or CD8+ magnetic reagent and incubated at 4° C. for a half hour. The cells were then separated by magnetic cell sorting using a Miltenyi Biotec system, were counted and diluted to a concentration of 2×10^6 cells/ml with BioWhittaker X Vivo. Autologous plasma from the subject was added to a concentration of 1% by volume. A 96 well plate was treated with antihuman-CD3 in PBS (BD Biosciences) at a concentration of 0.5 μg/ml for 4 hours. After the 4 hour incubation, the plate was washed 4 times with PBS. Purified CD4+ or CD8+ cells were added to each well along with various concentrations of the individual test compounds or controls. The cultures were then incubated at 37° C. for 1 day and supernatants were harvested and stored at −80° C. Cytokine profiles were determined using a BD Cytometric Bead Array Human Inflammation KIT (BD Biosciences, San Diego, Calif.). Briefly, 50 μl of culture supernates and standards were added to 100 μl of capture beads and detection reagent. Tubes were incubated for 3 hours at room temperature, washed with 1 ml of wash buffer and centrifuged prior to collection of the supernate. Wash buffer (300 μl) was added and samples immediately analyzed on the flow cytometer after vortexing. Known positive and negative samples and including a standard curve were included with each assay and all samples analyzed in triplicate. In addition, cultured cells (1×10^6) were washed in PBS with 0.1% bovine serum albumin (PBS/BSA), resuspended in 100 μl PBS/BSA, and incubated with anti-human CD3, CD19, CD69 and CD83 antibody for 1 hour at 4° C. Cells were resuspended in 1.0 ml PBS/BSA and analyzed on the flow cytometer.

CD8 T cells = test: Cytokine production of isolated CD8 T cells activated with anti CD3; type: cell-based, human
Method: as §1, with “Briefly, 50 μl of culture supernates and standards were added to 100 μl of capture beads and detection reagent. Tubes were incubated for 3 hours at room temperature, washed with 1 ml of wash buffer and centrifuged prior to collection of the supernate.” left out, “In addition, cultured cells (1×10^6) were washed in PBS with 0.1% bovine serum albumin (PBS/BSA), resuspended in 100 μl PBS/BSA, and incubated with anti-human CD3, CD19, CD69 and CD83 antibody for 1 hour at 4° C.” left out

In the case of `COc1cc([C@H]2Oc3cc(O)cc(O)c3C[C@H]2O)ccc1O` [3′-O-methyl-(−)-epicatechin], the “IFN-γ levels over media control and (−)-epicatechin treated cells” value (CD4 T cells) was “significantly higher levels”, the “IL-10 levels over media control and (−)-epicatechin treated cells” value (CD4 T cells) was “significantly higher levels” and the “TNF-α levels over media control and (−)-epicatechin treated cells” value (CD4 T cells) was “significantly higher levels”. The “IFN-γ amounts over the media controls” value (CD8 T cells) was “significantly higher amounts”.
